Reference: ChEMBL document CHEMBL1201862, “PubChem BioAssay data set” (2004)
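Compound exposure: 48 hours, 5 concentrations, 96-well plates. Abbreviation: GI50, concentration required for 50% inhibition of growth.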 Activity calls are given as the source filed them. Rule as the data show it: active = GI50 up to about 1.1 µM and inactive = higher.

Assays:
Experiment in all cases: NCI-60 cell line screen, 48 h
UACC-257 = tested on: UACC-257
HL-60 = tested on: HL-60
SR = tested on: SR
HT-29 = tested on: HT-29
SN12C = tested on: SN12C
OVCAR-5 = tested on: OVCAR-5
SF-539 = tested on: SF-539
HCT-15 = tested on: HCT-15
NCI-H23 = tested on: NCI-H23
LOX IMVI = tested on: LOX IMVI
UACC-62 = tested on: UACC-62
HOP-62 = tested on: HOP-62
CAKI-1 = tested on: CAKI-1
Malme-3M = tested on: Malme-3M
NCI-H522 = tested on: NCI-H522
SF-295 = tested on: SF-295
RPMI-8226 = tested on: RPMI-8226
IGROV-1 = tested on: IGROV-1
NCI-H460 = tested on: NCI-H460
A498 = tested on: A498

Structure (SMILES)	GI50 (UACC-257)	GI50 (HL-60)	GI50 (SR)	GI50 (HT-29)	GI50 (SN12C)	GI50 (OVCAR-5)	GI50 (SF-539)	GI50 (HCT-15) [µM]	GI50 (NCI-H23)	GI50 (LOX IMVI)	GI50 (UACC-62)	GI50 (HOP-62)	GI50 (CAKI-1)	GI50 (Malme-3M)	GI50 (NCI-H522)	GI50 (SF-295)	GI50 (RPMI-8226)	GI50 (IGROV-1)	GI50 (NCI-H460)	GI50 (A498)
CC(=O)N(C)c1ccc(Nc2ccnc3ccc4nn(C)nc4c23)cc1	21.7 µM (inactive)	18.4 µM (inactive)	25.6 µM (inactive)	29.4 µM (inactive)	26 µM (inactive)	30.1 µM (inactive)	19.2 µM (inactive)	21.5	32.4 µM (inactive)	16 µM (inactive)	16.1 µM (inactive)	26 µM (inactive)	12.2 µM (inactive)	18.9 µM (inactive)	19 µM (inactive)	21.8 µM (inactive)	20.3 µM (inactive)			
CN1C(=S)CSc2ccccc21	> 100 µM (inactive)	> 100 µM (inactive)	> 100 µM (inactive)	> 100 µM (inactive)	> 100 µM (inactive)	> 100 µM (inactive)	> 100 µM (inactive)	> 100	> 100 µM (inactive)	> 100 µM (inactive)		> 100 µM (inactive)	> 100 µM (inactive)	> 100 µM (inactive)	> 100 µM (inactive)		89.7 µM (inactive)	> 100 µM (inactive)	> 100 µM (inactive)	
CC1(C)NC(C)(C)/C(=N\O)C(=NO)/C1=N/O	> 100 µM (inactive)	> 100 µM (inactive)	> 100 µM (inactive)	> 100 µM (inactive)	> 100 µM (inactive)	> 100 µM (inactive)	> 100 µM (inactive)	> 100	> 100 µM (inactive)	> 100 µM (inactive)	> 100 µM (inactive)	> 100 µM (inactive)	> 100 µM (inactive)	> 100 µM (inactive)		> 100 µM (inactive)	> 100 µM (inactive)	> 100 µM (inactive)	> 100 µM (inactive)	
CN(C)c1ccc(/C=C2\Oc3ccccc3C2=O)cc1	> 100 µM (inactive)	> 100 µM (inactive)	31 µM (inactive)	> 100 µM (inactive)	> 100 µM (inactive)		> 100 µM (inactive)	> 100	> 100 µM (inactive)		> 100 µM (inactive)	> 100 µM (inactive)	> 100 µM (inactive)		90.4 µM (inactive)	> 100 µM (inactive)	> 100 µM (inactive)	> 100 µM (inactive)	> 100 µM (inactive)	
CC(NO)/C(=N/O)c1ccco1 (stereo unspecified)	> 10 µM (inactive)	> 10 µM (inactive)	> 10 µM (inactive)	> 10 µM (inactive)	> 10 µM (inactive)	> 10 µM (inactive)		> 10	> 10 µM (inactive)			> 10 µM (inactive)	> 10 µM (inactive)	> 10 µM (inactive)	> 10 µM (inactive)	> 10 µM (inactive)	> 10 µM (inactive)		> 10 µM (inactive)	
c1ccc(SC(Sc2ccccc2)c2ccc3c(c2)OCO3)cc1	> 100 µM (inactive)	> 100 µM (inactive)	> 100 µM (inactive)	65.2 µM (inactive)	> 100 µM (inactive)	> 100 µM (inactive)		> 100	> 100 µM (inactive)	> 100 µM (inactive)	> 100 µM (inactive)	> 100 µM (inactive)	> 100 µM (inactive)	> 100 µM (inactive)	85.9 µM (inactive)	> 100 µM (inactive)		> 100 µM (inactive)	> 100 µM (inactive)	90.2 µM (inactive)
